Source: patent publication US6534655B1, “Indeno[1,2-C]pyrazole derivatives for inhibiting tyrosine kinase activity” (BASF Aktiengesellschaft, priority 1997, dated 2003)

Key:
KDR tyrosine kinase = target: T1, KDR tyrosine kinase (Homo sapiens, UniProt P35968); assay: KDR in vitro ELISA (tyrosine kinase activity); assay type: biochemical; conditions: ATP 5 μM, 5% DMSO, poly(Glu,Tyr) 4:1 substrate
T1 construct: poly-His6 (N); made in house; host or cells: SF-9 insect cells (recombinant baculovirus, pVL1393)
T1 sequence (P35968 789-1354): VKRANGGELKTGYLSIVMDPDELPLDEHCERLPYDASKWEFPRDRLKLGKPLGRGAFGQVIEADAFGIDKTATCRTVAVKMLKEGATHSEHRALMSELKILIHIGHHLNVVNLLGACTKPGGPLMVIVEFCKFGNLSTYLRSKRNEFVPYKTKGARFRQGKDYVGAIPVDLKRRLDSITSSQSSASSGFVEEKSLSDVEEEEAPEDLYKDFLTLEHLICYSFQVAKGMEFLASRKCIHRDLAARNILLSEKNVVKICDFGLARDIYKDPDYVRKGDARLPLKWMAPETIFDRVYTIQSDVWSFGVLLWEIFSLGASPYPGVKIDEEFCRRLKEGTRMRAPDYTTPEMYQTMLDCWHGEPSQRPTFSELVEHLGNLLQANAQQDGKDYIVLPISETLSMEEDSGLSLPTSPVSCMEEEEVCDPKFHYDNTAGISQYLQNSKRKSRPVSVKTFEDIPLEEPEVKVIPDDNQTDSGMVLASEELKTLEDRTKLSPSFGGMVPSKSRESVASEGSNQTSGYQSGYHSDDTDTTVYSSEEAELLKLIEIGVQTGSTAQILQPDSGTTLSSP
From the text: The coding sequence for the KDR intra-cellular domain (aa789-1354) was generated through PCR using cDNAs isolated from HUVEC cells. A poly-His6 sequence was introduced at the N-terminus of this protein as well. This fragment was cloned into transfection vector pVL1393 at the Xba 1 and Not 1 site. Recombinant baculovirus (BV) was generated through co-transfection using the BaculoGold Transfection reagent (PharMingen). Recombinant BV was plaque purified and verified through Western analysis. For protein production, SF-9 cells were grown in SF-900-II medium at 2×10^6/ml, and were infected at 0.5 plaque forming units per cell (MOI). Cells were harvested at 48 hours post infection.
SF-9 cells expressing (His)6KDR(aa789-1354) were lysed by adding 50 ml of Triton X-100 lysis buffer (20 mM Tris, pH 8.0, 137 mM NaCl, 10% glycerol, 1% Triton X-100, 1 mM PMSF, 10 μg/ml aprotinin, 1 μg/ml leupeptin) to the cell pellet from 1 L of cell culture. The lysate was centrifuged at 19,000 rpm in a Sorval SS-34 rotor for 30 min at 4° C. The cell lysate was applied to a 5 ml NiCl2 chelating sepharose column, equilibrated with 50 mM HEPES, pH7.5, 0.3 M NaCl. KDR was eluted using the same buffer containing 0.25 M imidazole. Column fractions were analyzed using SDS-PAGE and an ELISA assay (below) which measures kinase activity. The purified KDR was exchanged into 25 mM HEPES, pH7.5, 25 mM NaCl, 5 mM DTT buffer and stored at −80° C.
The disclosed protocol can be adapted for determining activity with respect to a specific RTK. For example, preferred protocols for conducting the ELISA experiments for KDR is provided below. Adaptation of these protocols for determining a compound's activity for other members of the RTK family, as well as non-receptor tyrosine kinases, are well within the abilities of those in the art. […]
Stop with 1M Phosphoric acid. Shake on plate reader.
Read OD immediately at 450 nm
Optimal incubation times and enzyme reaction conditions vary slightly with enzyme preparations and are determined empirically for each lot.

[1] = system: Human umbilical vein endothelial cells (HUVEC); assay: HUVEC mitogenesis assay (tritiated thymidine incorporation); assay type: cell-based; conditions: mitogenesis induced by VEGF, FGF or Complete Media (stimulus not given)
Experimental: B. HUVEC Mitogenesis Assay
Human umbilical vein endothelial cells (HUVEC) were cultured in EGM-Complete Media (endothelial growth media supplemented with 10% FBS, hydrocortisone, epidermal growth factor and bovine brain extract as per the supplier's directions). Cells, media and supplements were purchased from Clonetics (San Diego, Calif.). The HUVEC Mitogenesis Assay was used to measure inhibition of mitogenesis induced by VEGF, FGF or Complete Media. Cells were harvested by trypsinization, washed once and suspended in Complete Media (CM) at a concentration of 5,000 cells/0.15 ml. Cells were seeded into 96-well plates at 5,000 cells/well and incubated at 37° C. for 24 hours. Cells were washed once with serum-free media (SFM) and incubated under serum-free conditions for 24 hours. Non-serum starved control wells were cultured with CM during this period. Test compounds were prepared as 10 mM stock solutions in DMSO, diluted in SFM and added to wells over a concentration range (0.005-50 μM final concentration). Cells were incubated for 1 hour prior to addition of 50 ng/ml VEGF or FGF (R & D Systems, Minneapolis, Minn.). Complete media stimulated wells received the test compound and stimulus simultaneously. […] Plates were harvested onto filter mats with a Tomtec Harvester and counted with a Betaplate liquid scintillation counter (Wallac).

KDR = target: T2, KDR (Homo sapiens, UniProt P35968); assay: VEGF-induced KDR phosphorylation in HUVEC measured by Western blots; assay type: cell-based; conditions: VEGF(165) 50 ng/ml, Western blot, read-out: cellular IC50 (VEGF-induced KDR phosphorylation)
T2 construct: HUVEC cells (from pooled donors) were purchased from Clonetics (San Diego, Calif.) and cultured according to the manufacturer directions; host or cells: HUVEC (pooled donors, passages 3-8)
T2 sequence (P35968 20-1356): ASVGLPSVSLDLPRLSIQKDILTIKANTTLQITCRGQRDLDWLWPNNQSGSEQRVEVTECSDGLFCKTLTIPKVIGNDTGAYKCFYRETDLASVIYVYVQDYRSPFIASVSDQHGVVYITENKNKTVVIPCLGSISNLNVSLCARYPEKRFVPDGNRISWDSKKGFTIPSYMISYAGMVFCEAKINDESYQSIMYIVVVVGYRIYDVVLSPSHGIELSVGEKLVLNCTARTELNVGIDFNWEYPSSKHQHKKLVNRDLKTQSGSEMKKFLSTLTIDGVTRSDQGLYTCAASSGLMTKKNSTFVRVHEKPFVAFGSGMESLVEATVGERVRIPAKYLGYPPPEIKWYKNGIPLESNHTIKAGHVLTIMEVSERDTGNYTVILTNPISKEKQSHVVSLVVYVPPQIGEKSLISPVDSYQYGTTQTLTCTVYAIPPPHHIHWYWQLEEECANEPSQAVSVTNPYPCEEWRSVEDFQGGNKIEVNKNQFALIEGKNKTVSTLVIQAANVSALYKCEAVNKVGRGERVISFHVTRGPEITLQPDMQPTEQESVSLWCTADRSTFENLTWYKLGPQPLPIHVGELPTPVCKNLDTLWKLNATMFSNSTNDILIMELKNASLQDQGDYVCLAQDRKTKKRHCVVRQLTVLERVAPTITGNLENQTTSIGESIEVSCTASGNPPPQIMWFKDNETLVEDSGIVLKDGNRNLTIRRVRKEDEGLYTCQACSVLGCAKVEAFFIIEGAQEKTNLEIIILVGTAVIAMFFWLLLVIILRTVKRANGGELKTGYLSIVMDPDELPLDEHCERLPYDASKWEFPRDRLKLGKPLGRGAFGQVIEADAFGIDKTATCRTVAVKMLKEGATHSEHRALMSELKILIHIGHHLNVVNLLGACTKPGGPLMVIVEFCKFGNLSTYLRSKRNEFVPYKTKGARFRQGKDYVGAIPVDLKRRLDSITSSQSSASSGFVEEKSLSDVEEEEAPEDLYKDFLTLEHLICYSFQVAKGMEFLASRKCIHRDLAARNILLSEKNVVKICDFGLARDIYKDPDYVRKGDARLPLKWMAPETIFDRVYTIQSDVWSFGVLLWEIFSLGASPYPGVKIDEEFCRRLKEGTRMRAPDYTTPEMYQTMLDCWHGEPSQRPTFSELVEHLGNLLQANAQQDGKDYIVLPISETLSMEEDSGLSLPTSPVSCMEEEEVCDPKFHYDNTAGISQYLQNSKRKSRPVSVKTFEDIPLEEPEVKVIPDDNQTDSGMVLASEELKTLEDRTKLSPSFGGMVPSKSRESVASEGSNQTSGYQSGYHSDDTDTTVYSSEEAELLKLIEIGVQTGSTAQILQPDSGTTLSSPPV
Experimental: A. VEGF-Induced KDR Phosphorylation in Human Umbilical Vein Cells (HUVEC) as Measured by Western Blots.
1. HUVEC cells (from pooled donors) were purchased from Clonetics (San Diego, Calif.) and cultured according to the manufacturer directions. Only early passages (3-8) were used for this assay. Cells were cultured in 100 mm dishes (Falcon for tissue culture; Becton Dickinson; Plymouth, England) using complete EBM media (Clonetics).
2. For evaluating a compound's inhibitory activity, cells were trypsinized and seeded at 0.5-1.0×10^5 cells/well in each well of 6-well cluster plates (Costar; Cambridge, Mass.).
3. 3-4 days after seeding, plates were 90-100% confluent. Medium was removed from all the wells, cells were rinsed with 5-10 ml of PBS and incubated 18-24 h with 5 ml of EBM base media with no supplements added (i.e., serum starvation).
4. Serial dilutions of inhibitors were added in 1 ml of EBM media (25 uM, 5 uM, or 1 uM final concentration) to cells and incubated for one hour at 37° C. Human recombinant VEGF(165) (R&D Systems) was then added to all the wells in 2 ml of EBM medium at a final concentration of 50 ng/ml and incubated at 37° C. for 10 minutes. Control cells untreated or treated with VEGF only were used to assess background phosphorylation and induction by VEGF.
5. […]

With `Cc1c2c(nn1-c1ccccc1)-c1ccccc1C2=O` the IC50 (KDR tyrosine kinase) was over 100 µM.

`C1=NC(n2nc(-c3ccccc3)cc2-c2ccccc2)NC1` (stereo not shown) showed an IC50 (KDR tyrosine kinase) of over 100 µM.

For `O=C1c2ccccc2-c2[nH]nc(-c3ccccc3)c21` [3-phenylindeno[1,2-c]pyrazol-4(1H)-one], the IC50 [1] was under 0.1 µM, the IC50 (KDR tyrosine kinase) was 0.15 µM and the IC50 (KDR) was 3 µM.

`COc1cc(-c2n[nH]c3c2C(=O)c2ccccc2-3)cc(OC)c1OC` [Example 2, 3-(3,4,5-Trimethoxyphenyl)indeno[1,2-c]pyrazol-4(1H)-one] showed a melting point of 268 to 272 °C.

`O=C1c2ccccc2-c2[nH]nc(-c3ccc(Cl)cc3)c21` [Example 3, 3-(4-chlorophenyl)indeno[1,2-c]pyrazol-4(1H)-one] showed a melting point of over 330 °C.

With `CN1NC(c2ccccc2)C2=C1c1ccccc1C2=O` (stereo not shown) [Example 5, 1-methyl-3-phenylindeno[1,2-c]pyrazol-4(2H)-one] the melting point was 187 to 188 °C.

Compound `COc1ccc(-c2n[nH]c3c2C(O)c2ccccc2-3)cc1OC` (stereo not shown) [Example 6, 3-(3,4-dimethoxyphenyl)-1,4-dihydroindeno[1,2-c]pyrazol-4-ol] has a melting point of 197 to 199 °C.

In the case of `OC1c2ccccc2-c2[nH]nc(-c3ccccc3)c21` (stereo not shown) [Example 7, 3-phenyl-1,4-dihydroindeno[1,2-c]pyrazol-4-ol], the melting point is reported as 269 to 272 °C.
